Experimental findings from ChEMBL document CHEMBL5518214, “Discovery and Structure-Activity Relationships of Novel ssDAF-12 Receptor Modulators” (J Med Chem, 2024) are described below.

In data set [1] the target is T1, Nuclear hormone receptor isoform A (Strongyloides stercoralis, UniProt A0A0K0EQJ4).
T1 sequence (A0A0K0EQJ4 whole entry): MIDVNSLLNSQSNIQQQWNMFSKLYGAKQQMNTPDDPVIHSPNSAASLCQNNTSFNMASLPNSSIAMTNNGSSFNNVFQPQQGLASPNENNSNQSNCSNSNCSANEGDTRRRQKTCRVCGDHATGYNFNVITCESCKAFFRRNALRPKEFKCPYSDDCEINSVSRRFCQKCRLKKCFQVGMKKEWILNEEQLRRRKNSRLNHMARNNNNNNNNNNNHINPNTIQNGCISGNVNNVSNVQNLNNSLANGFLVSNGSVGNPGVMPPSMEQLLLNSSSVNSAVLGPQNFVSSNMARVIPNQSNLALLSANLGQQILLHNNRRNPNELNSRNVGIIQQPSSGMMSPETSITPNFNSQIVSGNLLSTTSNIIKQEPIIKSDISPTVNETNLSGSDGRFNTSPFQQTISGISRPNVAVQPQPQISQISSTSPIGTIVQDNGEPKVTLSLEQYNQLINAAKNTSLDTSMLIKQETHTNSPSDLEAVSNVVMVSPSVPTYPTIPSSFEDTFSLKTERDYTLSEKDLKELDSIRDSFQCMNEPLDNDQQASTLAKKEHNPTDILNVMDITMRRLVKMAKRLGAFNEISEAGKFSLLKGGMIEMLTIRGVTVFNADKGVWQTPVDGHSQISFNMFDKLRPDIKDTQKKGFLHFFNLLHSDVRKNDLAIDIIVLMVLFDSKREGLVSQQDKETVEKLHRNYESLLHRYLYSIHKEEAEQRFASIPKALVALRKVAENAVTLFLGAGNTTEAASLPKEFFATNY
Put plainly: Partial agonist activity at GST-tagged Strongyloides stercoralis DAF-12 LBD incubated for 0.5 hrs in presence of biotinylated SRC1 and SRC2 by Alphascreen assay. Background: Alpha assays give light when donor and acceptor beads are brought close together.

In data set [2] the target is T2, Nuclear hormone receptor isoform A (Strongyloides stercoralis) (UniProt A0A0K0EQJ4).
T2 sequence (whole entry): T1 sequence (A0A0K0EQJ4 whole entry)
Put plainly: Partial agonist activity at GST-tagged Strongyloides stercoralis DAF-12 LBD incubated for 0.5 hrs in presence of biotinylated SRC1 and SRC2 by Alphascreen assay relative to control.

For data set [3], the target named is T1, Nuclear hormone receptor isoform A. Put plainly: Antagonist activity at GST-tagged Strongyloides stercoralis DAF-12 LBD incubated for 0.5 hrs in presence of biotinylated SRC1 and SRC2 by Alphascreen assay.
For data set [4] the target is unchanged. Description: Agonist activity at GST-tagged Strongyloides stercoralis DAF-12 LBD incubated for 0.5 hrs in presence of biotinylated SRC1 and SRC2 by Alphascreen assay.
For data set [5] the target is unchanged. Description: Agonist activity at Strongyloides stercoralis DAF-12 LBD transfected in CHO cells. The format is cell-based.
A further data set relates to HepG2. Description: Cytotoxicity against human HepG2 cells assessed as reduction in cell viability incubated for 4 hrs by celltiter glo assay. The format is toxicity, cell-based. The settings on record: hepg2, 4 h.
Data set [6] in a line: Drug metabolism in human liver microsome incubated for 90 mins in presence of NADPH by LC-MS/MS analysis. The format is ADME. The note with it: microsomes, 1.5 h. On the technique in general: Microsomes from liver hold many membrane-bound enzymes, among them those of drug oxidation.
Data set [7] is described as follows: Drug metabolism in human liver microsome assessed as (2S,6R)-6-((5S,10S,13R,17R)-3-hydroxy-10,13-dimethyl-2,3,4,5,6,9,10,11,12,13,14,15,16,17-tetradecahydro-1H-cyclopenta[a]phenanthren-17-yl)-2-methylheptanoic acid formation by measuring retention time incubated for 90 mins in presence of NADPH by LC-MS/MS analysis. It counts as ADME. The settings on record: microsomes, 1.5 h.

A short description of data set [8]: Metabolic stability in human liver microsome assessed as half life measured for 30 mins by LC-MS analysis. The note with it: human liver microsomes. The format is ADME.
Data set [9] can be described thus: Metabolic stability in human liver microsome assessed as parent compound remaining measured for 30 mins by LC-MS analysis. It counts as ADME. The settings on record: human liver microsomes, read-out: Stability.
The nature of data set [10]: Kinetic solubility of compound at pH 7.4 by HPLC/MS analysis. The format is physicochemical. The settings on record: buffer, read-out: Kinetic_solubility.
Data set [11] addresses T2, Nuclear hormone receptor isoform A (Strongyloides stercoralis). Description: Agonist activity at GST-tagged Strongyloides stercoralis DAF-12 LBD incubated for 0.5 hrs in presence of biotinylated SRC1 and SRC2 by Alphascreen assay relative to control. The settings on record: filed as agonist.

The EC50 is the concentration that produces a half-maximal response. As a reminder, the Emax is the size of the effect at its maximum, as opposed to the concentration needed. One may read the IC50 as the point on the concentration scale where inhibition reaches its midpoint. The term half-life denotes the time in which the quantity being followed falls by half.

Each structure is given as a SMILES string. Values after ≈ are worked out from the molar mass of the structure shown.

Regarding `C[C@H](CO)CCC[C@@H](C)[C@H]1CC[C@H]2C3=CC[C@H]4CC(=O)CC[C@]4(C)C3CC[C@]12C` (stereo partly specified), the EC50 in data set [1] turned out to be 1.02 µM. Besides, the Emax in data set [2] was 36%.

For the compound `C[C@H](CCc1nn[nH]n1)[C@H]1CC[C@H]2C3=CC[C@H]4CC(=O)CC[C@]4(C)C3CC[C@]12C` (stereo partly specified), the IC50 in data set [3] was 6.9 µM. For the same compound, in data set [4], the EC50 was above 100 µM.

For `C[C@@H](CCC[C@@H](C)[C@H]1CC[C@H]2C3=CC[C@H]4CC(=O)CC[C@]4(C)C3CC[C@]12C)COS(=O)(=O)O` (stereo partly specified), the EC50 in data set [1] came to 7.2 µM. Besides, the Emax in data set [2] was determined as 15%.

Turning to `C[C@H](CCC[C@H](C)C(=O)O)[C@H]1CC[C@H]2C3=CC[C@H]4CC(=O)CC[C@]4(C)C3CC[C@]12C` (stereo partly specified), the EC50 in [5] was 0.09 µM; in data set [4], 0.08 µM. The Activity result in the data set on HepG2 is given as “Non-Toxic”. Besides, the Drug metabolism result in data set [6] is recorded as “Metabolite_Detected”. The Retention_time in data set [7] is listed as 8.51 min. Besides, in data set [8], the half-life was 17 min. The remaining at 0.5 h in [9] is 50%. Besides, in [10], the solubility kinetic worked out at 4 µM (≈ 1.66 µg/mL). Besides, the Emax in data set [11] worked out at 100%.

Consider `CNC(=O)[C@@H](C)CCC[C@@H](C)[C@H]1CC[C@H]2C3=CC[C@H]4CC(=O)CC[C@]4(C)C3CC[C@]12C` (stereo partly specified), for which, in [1], the EC50 came to 1.02 µM. In data set [2], the Emax is 11%.

For `C[C@H](CCc1nnn(C(c2ccccc2)(c2ccccc2)c2ccccc2)n1)[C@H]1CC[C@H]2C3=CC[C@H]4CC(=O)CC[C@]4(C)C3CC[C@]12C` (stereo partly specified), the IC50 in data set [3] stood at 60 µM. Besides, the EC50 in data set [4] is above 100 µM.

For the compound `C[C@H](CCc1nnn(C)n1)[C@H]1CC[C@H]2C3=CC[C@H]4CC(=O)CC[C@]4(C)C3CC[C@]12C` (stereo partly specified), in data set [3], the IC50 amounted to 10 µM. In addition, the EC50 in [4] was above 100 µM.

In the case of `C[C@H](CCCc1nnn(C)n1)[C@H]1CC[C@H]2C3=CC[C@H]4CC(=O)CC[C@]4(C)C3CC[C@]12C` (stereo partly specified), in data set [3], the IC50 was determined as 17.9 µM. Besides, the half-maximal effective concentration (EC50) in data set [4] was above 100 µM.

`C[C@H](CCc1nnn(C(C)(C)C)n1)[C@H]1CC[C@H]2C3=CC[C@H]4CC(=O)CC[C@]4(C)C3CC[C@]12C` (stereo partly specified): the IC50 in [3] was 7.8 µM. In addition, the EC50 in [4] was above 100 µM.

On to `C[C@H](CCC[C@H](C)C(=O)NS(C)(=O)=O)[C@H]1CC[C@H]2C3=CC[C@H]4CC(=O)CC[C@]4(C)C3CC[C@]12C` (stereo partly specified), for which the EC50 in [5] was 0.47 µM; in data set [4] it was 0.41 µM. Moreover, the Retention_time in data set [7] came out at 7.28 min. The solubility kinetic in [10] was above 250 µM. The Emax in [11] was determined as 85%.

Turning to `C[C@H](CCC[C@H](C)C(=O)NS(=O)(=O)N(C)C)[C@H]1CC[C@H]2C3=CC[C@H]4CC(=O)CC[C@]4(C)C3CC[C@]12C` (stereo partly specified), the Emax in data set [11] is 95%. For the same compound, the EC50 in data set [4] stood at 0.65 µM.

With `C[C@H](CCCC1=C(O)CCC1=O)[C@H]1CC[C@H]2C3=CC[C@H]4CC(=O)CC[C@]4(C)C3CC[C@]12C` (stereo partly specified), in data set [3], the IC50 came to 16.8 µM. Further, the half-maximal effective concentration (EC50) in data set [4] is above 100 µM.

Consider `Cc1ccc(S(=O)(=O)NC(=O)[C@@H](C)CCC[C@@H](C)[C@H]2CC[C@H]3C4=CC[C@H]5CC(=O)CC[C@]5(C)C4CC[C@]23C)cc1` (stereo partly specified), for which the maximal effect (Emax) in data set [11] came to 40%. Further, in [4], the EC50 is 4.7 µM.
